Experimental data taken from PubChem BioAssay (NCI).
Values joined by “and” are separate entries in the source; they are usually repeats but may differ in a detail not shown here. Identical values can stand only once.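 1) Cells in 96-well plates. 2) Compound, 48 h, 5 concentrations. 3) Linear interpolation between surrounding doses. 4) Unreached endpoint = highest concentration. Here, GI50 denotes the concentration required for 50% inhibition of growth. TGI marks complete inhibition of growth.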

Experiments:
Experiment in all cases: NCI anticancer screen, dose series, 48 h
SK-MEL-28 melanoma = tested on: SK-MEL-28 melanoma
SW-620 colon = tested on: SW-620 colon
HCT-15 colon = tested on: HCT-15 colon
786-0 renal = tested on: 786-0 renal
LOX IMVI melanoma = tested on: LOX IMVI melanoma
SK-OV-3 ovarian = tested on: SK-OV-3 ovarian
NCI-H460 lung = tested on: NCI-H460 lung
EKVX NSCLC = tested on: EKVX NSCLC
HCT-116 colon = tested on: HCT-116 colon
HOP-92 NSCLC = tested on: HOP-92 NSCLC

SMILES | TGI (SK-MEL-28 melanoma) | GI50 (SW-620 colon) | TGI (SW-620 colon) | GI50 (HCT-15 colon) | TGI (HCT-15 colon) | TGI (786-0 renal) | GI50 (LOX IMVI melanoma) | TGI (LOX IMVI melanoma) | GI50 (SK-OV-3 ovarian) | TGI (SK-OV-3 ovarian) | GI50 (NCI-H460 lung) | TGI (NCI-H460 lung) | GI50 (EKVX NSCLC) | TGI (EKVX NSCLC) | TGI (HCT-116 colon) | TGI (HOP-92 NSCLC) | GI50 (SK-MEL-28 melanoma) | GI50 (786-0 renal) | GI50 (HCT-116 colon) | GI50 (HOP-92 NSCLC)
CC1[C@@H]2[C@@H](C=C3C4CCC5Cc6nc7c(nc6C[C@@]5(C)C4C[C@H](O)[C@]32CO)CC2CCC3C4=C[C@H]5O[C@@]6(O[C@@](C)(CO)C[C@@H]6O)C(C)[C@@]5(O)[C@]4(C)[C@@H](O)CC3[C@]2(C)C7)O[C@]12CCC(C)(C)O2 (stereo partly specified) | 238 nM | 7.9 nM | 175 nM and 89.2 nM | 74.4 nM | 810 nM and 626 nM | 534 nM | 17 nM and 7.1 nM | > 3650 nM | < 0.365 nM | 99.1 nM and 22.4 nM | 0.713 nM | 132 nM and 104 nM | 11.9 nM | 749 nM and 2000 nM | 406 nM and 1420 nM | 84 nM |  |  |  | 
CCN(CC)CCNC(=O)c1ccccc1NC(=O)C(=O)Nc1ccccc1C(=O)NCCN(CC)CC | > 100000 nM |  | 42000 nM |  | > 100000 nM | 42600 nM |  | 73600 nM |  | > 100000 nM |  | > 100000 nM |  | > 100000 nM | 43300 nM | 98500 nM |  |  |  | 
O=C1c2ccccc2C2(O)Nc3cc(O)ccc3C12O (stereo unspecified) | > 100000 nM |  | > 100000 nM |  | > 100000 nM | > 100000 nM |  | > 100000 nM |  | > 100000 nM |  | > 100000 nM |  | > 100000 nM | > 100000 nM | > 100000 nM |  |  |  | 
C[n+]1c(/C=C\C=C\N2CCCCC2)sc2ccccc21 | 13400 nM | 513 nM | 14900 nM | 10900 nM | 49200 nM | > 36600 nM | 481 nM | 12900 nM | 794 nM | 6790 nM | 489 nM | 4370 nM | 255 nM | 10800 nM | > 32100 nM | 2160 nM | 552 nM | 2550 nM | 308 nM | 75.8 nM
CNC(=O)c1cc(COc2nnc(Nc3ccc(Cl)cc3)c3ccoc23)ccn1 | 27700 nM and > 10000 nM | 21100 nM and > 10000 nM | 56600 nM and > 10000 nM | 12600 nM and > 10000 nM | 52400 nM and > 10000 nM | 6700 nM and > 10000 nM | 6410 nM and > 10000 nM | 25100 nM and > 10000 nM | 3480 nM and 9730 nM | 13200 nM and > 10000 nM | 4210 nM and > 10000 nM | 20900 nM and > 10000 nM | 10600 nM and > 10000 nM | 28300 nM and > 10000 nM | 11300 nM and > 10000 nM | 14400 nM and > 10000 nM | 7980 nM and > 10000 nM | 2360 nM and > 10000 nM | 3320 nM and > 10000 nM | 2900 nM and 3780 nM
C=CCC1OC(C)(C)Oc2ccc(OCOCCOC)cc21 (stereo unspecified) | > 100000 nM |  | > 100000 nM |  | > 100000 nM | > 100000 nM |  | > 100000 nM |  | > 100000 nM |  | > 100000 nM |  | > 100000 nM | > 100000 nM | > 100000 nM |  |  |  | 
Cc1ccc(C(=O)N(CCCN)[C@@H](c2nc3cc(Cl)ccc3c(=O)n2Cc2ccccc2)C(C)C)cc1 | 2500 nM and 2420 nM | < 10 nM | 1280 nM and 1610 nM | 15.9 nM and < 10 nM | 1920 nM and 1440 nM | 2080 nM and 1980 nM | < 10 nM | 1810 nM and 1520 nM | < 10 nM | 1650 nM and 2190 nM | < 10 nM | 1090 nM and 1250 nM | < 10 nM | 2220 nM and 1640 nM | 1410 nM and 1260 nM | 2000 nM and 2330 nM | 1110 nM and 1150 nM | < 10 nM | < 10 nM | 1000 nM
C(=Nc1ccccc1)C1CCCC[N-]1.C(=Nc1ccccc1)C1CCCC[N-]1.[Cu+2].[O-][Cl+3]([O-])([O-])O (stereo unspecified) | 48500 nM | 10400 nM | 32400 nM | 529 nM | 9760 nM | > 58700 nM | 13.2 nM | 11800 nM | 704 nM | 35800 nM | 11200 nM | > 58200 nM | 19000 nM | 58100 nM | 28800 nM | > 73900 nM | 20500 nM | 13300 nM | 7300 nM | 23000 nM
Cc1c2cc[nH]c(=O)c2c(C)c2c1[nH]c1cc(OCCN3CCN(C)CC3)ccc12 | 2980 nM | 381 nM | 2480 nM | 1880 nM | 12000 nM | 5090 nM | 484 nM | 1900 nM | 614 nM | 5900 nM | 418 nM | 1840 nM | 1110 nM | 10300 nM | 2090 nM | 5460 nM | 1500 nM | 946 nM | 339 nM | 798 nM
